Experimental data: patent US20130064712A1, “Composite comprising at least one type of perfluoroalkyl-perfluoro-phthalocyanine” (priority 2009, published 2013)

Experiments:
Jurkat cells = test: Accumulation of free F64PcZn in Jurkat cells; assay type: cell-based, human; conditions: free F64PcZn incubated with the cell suspensions
Text: If the composite is used also on human skin there is a probability of PS loss by the photoactive foil. In order to protect the human body against undesired phototoxic effects it is important to make sure that the free molecules are not able to enter human cells.
Laser Phys. 13:22-29 b) M. Regehly , K. Greish, F. Rancan, H. Maeda, B. Röder: Water-soluble polymer conjugates of ZnPP for photodynamic therapy, Bioconjugate Chemistry, 18 (2007) 494-499. c) K. Chen, A. Preuβ, S. Hackbarth, M. Wacker, K. Langer, B. Röder: Novel photosensitizer-protein nanoparticles for Photodynamic Therapy: Photophysical characterization and in vitro investigations, J. Photochem. Photobiol.: B, in press May 2009). It is important to mention that phthalocyanines also belong to the class of tetrapyroles and thus the above comparison is meaningful. Thus, incubating the cell suspensions according to the procedure described in a) Paul A, Hackbarth S, Mölich A, Seifert M, Röder B (2003) Comparative Study on the Photosensitization of Jurkat Cells in vitro by Pheophorbide-a and a Pheophorbide-a Diaminobutane polypropylene-imine Dendrimer Complex. Laser Phys. […]

[1] = Singlet oxygen quantum yield; assay type: physicochemical

With “1, 4, 8, 11, 15, 18, 22, 25-octafluoro-2, 3, 9, 10, 16, 17, 23, 24-octa-perfluoro-isopropyl-phthalocyanine [F64PcZn]” the “accumulation of the dye inside the cells” value (Jurkat cells) was “undetectable accumulation” and the “singlet oxygen quantum yield” value [1] was “around 56%”.
